Columns and labels:
human mGluR2 receptor = molecular target: T1, human mGluR2 receptor (Homo sapiens, UniProt Q14416); test: [35S]GTPγS binding assay (GTPγS-PAM), membranes from CHO cells transfected with human mGluR2, glutamate at EC25; type: biochemical; conditions: positive allosteric modulation in presence of glutamate at EC25 concentration; averages of duplicate values of 11-concentration response curves; error about 0.3 log-units; read-out: GTPgS - hR2 PAM pEC50 (converted)
T1 construct: expressed in transfected cells; host or cells: CHO cells (membrane preparation)
Text: The compounds provided in the present invention are positive allosteric modulators of mGluR2. These compounds appear to potentiate glutamate responses by binding to an allosteric site other than the glutamate binding site. The response of mGluR2 to a concentration of glutamate is increased when compounds of Formula (I) are present. Compounds of Formula (I) are expected to have their effect substantially at mGluR2 by virtue of their ability to enhance the function of the receptor. The behaviour of positive allosteric modulators tested at mGluR2 using the [^35S]GTPγS binding assay method described below and which is suitable for the identification of such compounds, and more particularly the compounds according to Formula (I), are shown in Table 4.
The [^35S]GTPγS binding assay is a functional membrane-based assay used to study G-protein coupled receptor (GPCR) function whereby incorporation of a non-hydrolysable form of GTP, [^35S]GTPγS (guanosine 5′-triphosphate, labelled with […] ^35S), is measured. The G-protein α subunit catalyzes the exchange of guanosine 5′-diphosphate (GDP) by guanosine triphosphate (GTP) and on activation of the GPCR by an agonist, [^35S]GTPγS, becomes incorporated and cannot be cleaved to continue the exchange cycle (Harper (1998) Current Protocols in Pharmacology 2.6.1-10, John Wiley & Sons, Inc.). […] Here we describe the use of the [^35S]GTPγS binding assay using membranes from cells transfected with the human mGluR2 receptor and adapted from Schaffhauser et al ((2003) Molecular Pharmacology 4:798-810) for the detection of the positive allosteric modulation (PAM) properties of the compounds of this invention.
Cho-cells were cultured to pre-confluence and stimulated with 5 mm butyrate for 24 hours, prior to washing in PBS, and then collection by scraping in homogenisation buffer (50 mM Tris-HCl buffer, pH 7.4, 4° C.). Cell lysates were homogenized briefly (15 s) using an ultra-turrax homogenizer. The homogenate was centrifuged at 23 500×g for 10 minutes and the supernatant discarded. The pellet was resuspended in 5 mM Tris-HCl, pH 7.4 and centrifuged again (30 000×g, 20 min, 4° C.). The final pellet was resuspended in 50 mM HEPES, pH 7.4 and stored at −80° C. in appropriate aliquots before use. Protein concentration was determined by the Bradford method (Bio-Rad, USA) with bovine serum albumin as standard.
Measurement of mGluR2 positive allosteric modulatory activity of test compounds in membranes containing human mGluR2 was performed using frozen membranes that were thawed and briefly homogenised prior to pre-incubation in 96-well microplates (15 μg/assay well, 30 minutes, 30° C.) in assay buffer (50 mM HEPES pH 7.4, 100 mM NaCl, 3 mM MgCl2, 50 μM GDP, 10 μg/ml saponin,) with increasing concentrations of positive allosteric modulator (from 0.3 nM to 50 μM) and either a minimal pre-determined concentration of glutamate (PAM assay), or no added glutamate. For the PAM assay, membranes were pre-incubated with glutamate at EC25 concentration, i.e. a concentration that gives 25% of the maximal response glutamate, and is in accordance to published data (Pin et al. (1999) Eur. J. Pharmacol. 375:277˜294). After addition of [^35S]GTPγS (0.1 nM, f.c.) to achieve a total reaction volume of 200 μl, microplates were shaken briefly and further incubated to allow [^35S]GTPγS incorporation on activation (30 minutes, 30° C.). The reaction was stopped by rapid vacuum filtration over glass-fibre filter plates (Unifilter 96-well GF/B filter plates, Perkin-Elmer, Downers Grove, USA) microplate using a 96-well plate cell harvester (Filtermate, Perkin-Elmer, USA), and then by washing three times with 300 μl of ice-cold wash buffer (Na2PO4.2H20 10 mM, NaH2PO4.H20 10 mM, pH=7.4). Filters were then air-dried, and 40 μl of liquid scintillation cocktail (Microscint-O) was added to each well, and membrane-bound [^35S]GTPγS was measured in a 96-well scintillation plate reader (Top-Count, Perkin-Elmer, USA). […]

T1 sequence (Q14416 19-872): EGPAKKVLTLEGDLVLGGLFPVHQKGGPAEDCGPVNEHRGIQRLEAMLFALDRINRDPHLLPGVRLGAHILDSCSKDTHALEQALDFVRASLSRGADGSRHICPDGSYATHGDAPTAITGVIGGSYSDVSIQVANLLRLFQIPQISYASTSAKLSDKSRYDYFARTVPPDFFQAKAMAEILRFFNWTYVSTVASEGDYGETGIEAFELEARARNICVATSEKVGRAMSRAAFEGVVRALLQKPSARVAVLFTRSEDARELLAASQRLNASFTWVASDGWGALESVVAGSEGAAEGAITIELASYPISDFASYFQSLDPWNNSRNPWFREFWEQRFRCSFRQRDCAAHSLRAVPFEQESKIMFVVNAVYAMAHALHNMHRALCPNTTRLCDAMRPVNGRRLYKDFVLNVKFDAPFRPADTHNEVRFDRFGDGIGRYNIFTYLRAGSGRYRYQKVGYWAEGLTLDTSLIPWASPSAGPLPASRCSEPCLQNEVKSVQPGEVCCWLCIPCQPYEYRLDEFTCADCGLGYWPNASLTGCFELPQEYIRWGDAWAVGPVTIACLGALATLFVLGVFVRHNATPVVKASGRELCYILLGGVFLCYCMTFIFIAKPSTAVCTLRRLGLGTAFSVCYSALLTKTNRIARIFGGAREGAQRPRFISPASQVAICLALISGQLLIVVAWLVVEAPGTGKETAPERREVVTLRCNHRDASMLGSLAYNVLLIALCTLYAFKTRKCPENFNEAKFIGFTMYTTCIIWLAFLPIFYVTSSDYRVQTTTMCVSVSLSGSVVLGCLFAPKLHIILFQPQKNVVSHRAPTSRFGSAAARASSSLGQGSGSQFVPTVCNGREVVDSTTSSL

Row | melting point [°C] | EC50 (human mGluR2 receptor) [µM] | Compound
1 | 108.4 | > 10 | CCCCn1ccc(-c2ccc(Oc3cccnc3C)cc2F)c(Cl)c1=O [Compound 29]
2 | – | 0.174 | CCCCn1ccc(-c2ccc(Oc3ccnc(C)c3)c(F)c2)c(Cl)c1=O [Compound 8]
3 | 79.7 | 0.0468 | CCCCn1ccc(-c2ccc(Oc3ccc(C)nc3)c(Cl)c2)c(Cl)c1=O [Compound 22]
4 | 126.2 | 0.437 | Cc1ncccc1Oc1ccc(-c2ccn(CC3CC3)c(=O)c2Cl)cc1 [Compound 24]
5 | 103.8 | 0.0676 | Cc1cc(Oc2ccc(-c3ccn(CCC(C)C)c(=O)c3Cl)cc2Cl)ccn1 [Compound 19]
6 | 96.1 | 0.0468 | Cc1ccc(Oc2ccc(-c3ccn(CCC(C)C)c(=O)c3Cl)cc2Cl)cn1 [Compound 21]
7 | 131.8 | 0.363 | Cc1cc(Oc2ccc(-c3ccn(CC4CC4)c(=O)c3Cl)c(F)c2)ccn1 [Compound 28]
8 | – | 0.251 | CCCCn1ccc(-c2ccc(Oc3ccnc(C)c3)cc2)c(Cl)c1=O [Compound 1, 1-Butyl-3-chloro-4-[4-(2-methylpyridin-4-yloxy)-phenyl]-1H-pyridin-2-one]
9 | 120.8 | 0.117 | Cc1cc(Oc2ccc(-c3ccn(CC4CC4)c(=O)c3Cl)cc2Cl)ccn1 [Compound 17]
10 | – | 0.1 | CCCCn1ccc(-c2ccc(Oc3ccnc(C)c3)c(Cl)c2)c(Cl)c1=O [Compound 18]
11 | – | > 10 | CCCCn1ccc(-c2ccc(Oc3ccc(C)nc3C)cc2F)c(Cl)c1=O [Compound 35]
12 | – | 0.224 | CCCCn1ccc(-c2ccc(Oc3cccnc3C)cc2)c(Cl)c1=O [Compound 25]
13 | – | 0.129 | CCCCn1ccc(-c2ccc(Oc3ccnc(C)c3C)c(F)c2)c(Cl)c1=O [Compound 12]
14 | 161.6 | 0.288 | Cc1cc(Oc2ccc(-c3ccn(CC4CC4)c(=O)c3Cl)cc2F)cc(C)n1 [Compound 31]
15 | 203.9 | 0.102 | Cc1cc(Oc2ccc(-c3ccn(CC4CC4)c(=O)c3C(F)(F)F)cc2F)ccn1 [Compound 38]
16 | – | 0.155 | Cc1cc(Oc2ccc(-c3ccn(CCC4CC4)c(=O)c3Cl)c(F)c2)ccn1 [Compound 26]
17 | – | 0.234 | CCCCn1ccc(-c2ccc(Oc3cc(C)nc(C)c3)c(F)c2)c(Cl)c1=O [Compound 9]
18 | – | 0.513 | Cc1cc(Oc2ccc(-c3ccn(CC4CC4)c(=O)c3Cl)cc2)ccn1 [Compound 13]
19 | 161.8 | 0.0759 | Cc1cc(Oc2ccc(-c3ccn(CC4CC4)c(=O)c3C(F)(F)F)cc2F)cc(C)n1 [Compound 5, 1-Cyclopropylmethyl-4-[4-(2,6-dimethyl-pyridin-4-yloxy)-3-fluoro-phenyl]-3-trifluoromethyl-1H-pyridin-2-one]

Row | melting point [°C] | EC50 (human mGluR2 receptor) [µM] | Compound
20 | – | 0.0398 | CCCCn1ccc(-c2ccc(Oc3ccc(C(C)(C)O)cc3)cc2)c(Cl)c1=O [Compound 37]
21 | 176 | 0.355 | Cc1cc(Oc2ccc(-c3ccn(CC4CC4)c(=O)c3Cl)cc2F)ccn1 [Compound 27]
22 | – | 0.126 | Cc1ncccc1Oc1ccc(-c2ccn(CC3CC3)c(=O)c2Cl)cc1Cl [Compound 23]
23 | 143.4 | 0.182 | Cc1ccc(Oc2ccc(-c3ccn(CC4CC4)c(=O)c3Cl)cc2F)c(C)n1 [Compound 3, 3-Chloro-1-cyclopropylmethyl-4-[4-(2,6-dimethylpyridin-3-yloxy)-3-fluoro-phenyl]-1H-pyridin-2-one]
24 | 111.8 | 0.0912 | Cc1ccc(Oc2ccc(-c3ccn(CC4CC4)c(=O)c3Cl)cc2Cl)cn1 [Compound 20]
25 | – | 0.0676 | CCCCn1ccc(-c2ccc(Oc3ccc(C)nc3C)cc2)c(Cl)c1=O [Compound 16]
26 | – | 0.891 | Cc1cc(C)nc(Oc2ccc(-c3ccn(CC4CC4)c(=O)c3Cl)c(F)c2)c1 [Compound 36]
27 | – | 0.17 | Cc1cc(Oc2ccc(-c3ccn(CCC(C)C)c(=O)c3Cl)cc2)ccn1 [Compound 6]
28 | 120.9 | > 10 | Cc1ncccc1Oc1ccc(-c2ccn(CC3CC3)c(=O)c2Cl)c(F)c1 [Compound 34]
29 | 148.6 | 0.372 | Cc1cc(Oc2ccc(-c3ccn(CC4CC4)c(=O)c3Cl)c(F)c2)cc(C)n1 [Compound 32]
30 | – | 0.2 | CCCCn1ccc(-c2ccc(Oc3cc(C)nc(C)c3)cc2F)c(Cl)c1=O [Compound 10]
31 | 280.3 | 0.138 | CCCCn1ccc(-c2ccc(Oc3ccc(C(=O)O)cc3)cc2)c(Cl)c1=O [Compound 4, 4-[4-(1-Butyl-3-chloro-2-oxo-1,2-dihydro-pyridin-4-yl)-phenoxy]-benzoic acid]
32 | 151.8 | 0.138 | Cc1ccc(Oc2ccc(-c3ccn(CC4CC4)c(=O)c3Cl)cc2)c(C)n1 [Compound 14]
33 | – | 0.174 | Cc1cc(Oc2ccc(-c3ccn(CCC4CC4)c(=O)c3Cl)cc2)ccn1 [Compound 7]
34 | – | 0.0603 | CCCCn1ccc(-c2ccc(Oc3cccnc3C)c(Cl)c2)c(Cl)c1=O [Compound 15]
35 | – | 0.617 | Cc1ncccc1Oc1ccc(-c2ccn(CC3CC3)c(=O)c2Cl)cc1F [Compound 33]
36 | – | 0.282 | CCCCn1ccc(-c2ccc(Oc3ccnc(C)c3)cc2F)c(Cl)c1=O [Compound 2, 1-Butyl-3-chloro-4-[2-fluoro-4-(2-methylpyridin-4-yloxy)-phenyl]-1H-pyridin-2-one]
37 | – | 0.0468 | CCCCn1ccc(-c2ccc(Oc3ccc(C)nc3C)c(F)c2)c(Cl)c1=O [Compound 30]
38 | – | 0.0676 | CCCCn1ccc(-c2ccc(Oc3ccnc(C)c3C)cc2F)c(Cl)c1=O [Compound 11]
